Source: US4769321A, “Assay method and reagent therefor” (priority 1979, dated 1988)

Columns and labels:
PK(I) = experiment: Detection of ATP by activation of the PFK/PK(I) feedback system (Example B2); assay type: biochemical, E. coli; settings: 0.0001 to 0.5 mM ATP; 340 nm, 30° C.
Description: Cultures of E. coli strain K1-1 were grown on a synthetic medium containing essential nutrients and glycerol as carbon source, until well into their logarithmic phase of growth. The cells were harvested, washed by centrifugation and resuspended in a sonication buffer of 5 mM phosphate, 1 mM EDTA, 2 mM mercaptoethanol pH 7.5 in an amount of approximately 20 mg dry weight per ml. They were then disrupted with an MSE ultrasonic disintegrator for 4 minutes (in 30 seconds bursts while cooled). The resulting crude extract was separated from cell debris by centrifugation. As well as containing pyruvate kinase (I) this extract also contained an interfering isoenzyme with different properties, and also a number of other interfering enzyme activities. It was found, however, that it was possible to remove these contaminants by heating the extract to 55° C. for 20-60, for example 45, minutes. This is the source of pyruvate kinase (I) referred to in the following examples.
In this example the same basic system described in Example 1 was again used, but instead of the system being used to detect an enzyme capable of giving rise to ATP, the pre-existing ATP in a solution was assayed, using a PK(I) extract which had been prepared by heating at 55° C. for 60 minutes.
As in the previous example, the assays were carried out in quartz spectrophotometer cuvettes for use with 1.0 ml assay mixtures. […]

creatine kinase = experiment: Creatine phosphate detection with creatine kinase as reagent (Example B7); assay type: biochemical, bovine; settings: for O.D. Units (340 nm) change/minute at 1.5 minutes: CK 0.05 U, 30° C., nil CP gave 0.0011
Description: Mixtures were made up in 10 mM dimethyl-glutamate buffer at pH 6.8 and containing 5 mM MgCl2 and 0.1% in bovine serum albumin as follows:
In each case the components were combined from stock solutions in a quartz cuvette of 1 ml capacity, mixed and immediately monitored for NADH oxidation by following their optical density at 340 nm and 30° C.

[1] = system: E. coli Type I pyruvate kinase (PK); settings: in the presence of certain amounts of phosphoenolpyruvate; cited from earlier work
alkaline phosphatase = experiment: Detection of alkaline phosphatase by antibody-coated wells and NAD cycle (Example A1); assay type: biochemical, bovine (calf); settings: ten-fold dilutions 1:1000 to 1:10^7; pH 9.3; room temperature
Description: The alkaline phosphatase used in this example is as obtainable from the Sigma Chemical Co (London) Ltd Type VII from bovine (calf) intestine catalogue number P4502 (1981). Antibody is raised against this material by any of the standard procedures. For example 0.5 mg of the alkaline phosphatase suspension is taken and made to 1.0 ml with distilled water and shaken gently. One ml of Freund's complete adjuvant is then added and the mixture homogenised through a connector between two hypodermic syringes back and forth until a stable water-in-oil emulsion is produced. Approximately 1 ml of the emulsion is then injected intramuscularly into each hindquarter of a rabbit. The injections are repeated two and four weeks later with the same amount of alkaline phosphatase but without the added Freund's adjuvant. Blood is then taken from the immunised animal two weeks after the last injection and the immune-serum taken off after clotting has taken place. An IgG fraction of the serum is then obtained by the standard procedure of DEAE Cellulose Chromatography set out in Methods in Immunology by D. H. Cambell, J. S. Garvey, N. E. Cremer and D. H. Sussdorf, 2nd Edition (1970) pages 193-197, published by W. A. Benjamin, Reading Mass. […] The plates are now ready for use. […]

## Nc1ncnc2c1ncn2[C@@H]1O[C@H](COP(=O)(O)OP(=O)(O)OP(=O)(O)O)[C@@H](O)[C@H]1O [ATP, adenosine 5'-triphosphate]
PK(I)
  initiation and rate of NADH oxidation vs ATP concentration: The higher concentrations of ATP gave rise to an earlier initiation of observable NADH oxidation and subsequently increased in their rate faster than the lower concentrations

## CN(CC(=O)O)C(=N)NP(=O)(O)O [CP, creatine phosphate]
Creatine kinase
  dependence of the system on creatine phosphate: dependent on the presence of creatine phosphate and the concentration thereof
Creatine kinase; CP concentration 0.4 mM
  O.D. Units (340 nm) change/minute at 1.5 minutes: 0.0070 O.D. Units (340 nm) change/min
Creatine kinase; CP concentration 4.0 mM
  O.D. Units (340 nm) change/minute at 1.5 minutes: 0.0118 O.D. Units (340 nm) change/min

## O=C(COP(=O)(O)O)[C@@H](O)[C@H](O)[C@H](O)COP(=O)(O)O [fructose-1,6-diphosphate]
[1]
  activation of E. coli Type I pyruvate kinase: very potent activator

B1: alkaline phosphatase: Sigma Type VII from bovine (calf) intestine catalogue number P4502 (protein, UniProt P19111 20-506, looked up)
Intestinal-type alkaline …: LVPVEEEDPAFWNRQAAQALDVAKKLQPIQTAAKNVILFLGDGMGVPTVTATRILKGQMNGKLGPETPLAMDQFPYVALSKTYNVDRQVPDSAGTATAYLCGVKGNYRTIGVSAAARYNQCKTTRGNEVTSVMNRAKKAGKSVGVVTTTRVQHASPAGAYAHTVNRNWYSDADLPADAQMNGCQDIAAQLVNNMDIDVILGGGRKYMFPVGTPDPEYPDDASVNGVRKRKQNLVQAWQAKHQGAQYVWNRTALLQAADDSSVTHLMGLFEPADMKYNVQQDHTKDPTLQEMTEVALRVVSRNPRGFYLFVEGGRIDHGHHDDKAYMALTEAGMFDNAIAKANELTSELDTLILVTADHSHVFSFGGYTLRGTSIFGLAPSKALDSKSYTSILYGNGPGYALGGGSRPDVNDSTSEDPSYQQQAAVPQASETHGGEDVAVFARGPQAHLVHGVEEETFVAHIMAFAGCVEPYTDCNLPAPTTATSIPD
Alkaline phosphatase
  colour change in wells vs alkaline phosphatase concentration: change of colour from pale yellow to black much faster than did those which had been exposed to a lower concentration
